Legend:
[1] = target: T1, PKC theta (Homo sapiens, UniProt Q04759); test: PKC assay, fluorescence polarization (Example 2), PKC theta; type: biochemical; conditions: 5 μM ATP
T1 construct: purchased Upstate Biotechnologies, Temecula, CA 14-444
Method: The inhibition of PKC activity was measured by monitoring the production of phosphorylated peptide by fluorescence polarization at different concentrations of the inhibitor. Reactions were carried out in 96-well plate format with a total volume of 20 μL containing 20 mM HEPES, pH 7.4, 5 mM MgCl2, 0.2 mM CaCl2, 1 mM DTT, 0.02% Brij-35, 0.1 mg/mL phosphatidylserine, 0.02 mg/mL dioleoyl-sn-glycerol and 5 μM each of ATP and the peptide substrate. Compounds were first diluted serially in DMSO and then transferred to a solution containing the above concentrations of HEPES, MgCl2, CaCl2, DTT, and Brij-35 to yield 5× compound solutions in 2% DMSO, which was then added to the reaction solution. Reactions were initiated by the addition of PKC at a typical concentration as described in Table VI, and then allowed to incubate at room temperature for 20 min. At the end of this time, a combination of quench (EDTA) and detection (peptide tracer and antibody) reagents was added using the protocol of Invitrogen P2748.

[2] = test system: Human primary T cells; test: IL-2 ELISA, Human Primary T Cell, Anti-CD3+CD28+ (Example 3); type: cell-based; conditions: Homo sapiens, T-cell, 24 h, anti-CD3+CD28 stimulation
Outline: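 Human primary T cells, 100,000 per well, were pre-incubated with compound in Yssel's medium for 1 h at 37 °C. The counter-assay used 0.5 ng/ml PMA with 0.1 uM ionomycin final.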

T1 sequence (Q04759 whole entry): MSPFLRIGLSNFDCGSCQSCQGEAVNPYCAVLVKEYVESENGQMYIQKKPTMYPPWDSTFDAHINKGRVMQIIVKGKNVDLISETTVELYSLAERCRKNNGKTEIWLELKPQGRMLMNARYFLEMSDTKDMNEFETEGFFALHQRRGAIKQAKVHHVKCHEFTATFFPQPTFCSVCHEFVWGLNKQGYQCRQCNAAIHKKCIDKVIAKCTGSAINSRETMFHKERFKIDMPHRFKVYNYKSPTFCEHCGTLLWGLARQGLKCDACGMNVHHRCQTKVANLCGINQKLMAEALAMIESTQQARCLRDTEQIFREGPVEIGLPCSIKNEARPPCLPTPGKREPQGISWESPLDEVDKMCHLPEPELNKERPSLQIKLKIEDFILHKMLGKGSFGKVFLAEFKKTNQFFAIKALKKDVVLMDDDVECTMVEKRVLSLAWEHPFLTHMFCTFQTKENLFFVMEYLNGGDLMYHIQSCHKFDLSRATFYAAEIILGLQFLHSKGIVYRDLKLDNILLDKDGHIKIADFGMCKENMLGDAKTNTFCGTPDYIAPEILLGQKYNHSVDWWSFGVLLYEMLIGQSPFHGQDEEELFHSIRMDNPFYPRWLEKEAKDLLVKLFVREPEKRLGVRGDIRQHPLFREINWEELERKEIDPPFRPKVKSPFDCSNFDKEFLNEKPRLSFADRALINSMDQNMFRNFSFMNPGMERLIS

| Compound | IC50 [1] | IC50 [2] |
| --- | --- | --- |
| COc1ccc(Nc2ncc(F)c(NC3CC(C)(C)N(C)C(C)(C)C3)n2)cc1Cl [Compound I-20] | 5 nM | 113 nM |
| CN1C(C)(C)CC(Nc2nc(Nc3ccc(C#N)c(Cl)c3)ncc2F)CC1(C)C [Compound I-22] | 21 nM | 177 nM |
| CN1C(C)(C)CC(Nc2nc(Nc3cccc(C#N)c3)ncc2F)CC1(C)C [Compound I-26] | 3 nM | 59 nM |
| COc1ccc(Nc2ncc(Cl)c(NC3CC(C)(C)N(C)C(C)(C)C3)n2)cc1Cl [Compound I-31] | 5 nM | 91 nM |
| CN1CCN(c2ccc(Nc3ncc(C(F)(F)F)c(NC4CC(C)(C)N(C)C(C)(C)C4)n3)cc2Cl)CC1 [Compound I-34] | 4 nM | 123 nM |
| CN1C(C)(C)CC(Nc2nc(Nc3ccc(C#N)c(Cl)c3)ncc2Cl)CC1(C)C [Compound I-35] | 24 nM | 145 nM |
| CN1CCN(c2ccc(Nc3ncc(F)c(NC4CC(C)(C)N(C)C(C)(C)C4)n3)cc2F)CC1 [Compound I-39] | 15 nM | 937 nM |
| CC1(C)CC(Nc2nc(Nc3cccc(C#N)c3)ncc2F)CC(C)(C)N1 [Compound I-70] | 38.7 nM | 517 nM |
| CN1CCN(c2ccc(Nc3ncc(C#N)c(NC4CC(C)(C)N(C)C(C)(C)C4)n3)cc2C(F)(F)F)CC1 [Compound I-94] | 11.7 nM | 443 nM |
| CN1C(C)(C)CC(Nc2nc(Nc3ccc(N4CCN(S(C)(=O)=O)CC4)c(C(F)(F)F)c3)ncc2C#N)CC1(C)C [Compound I-95] | 43 nM | 347 nM |
| CN1C(C)(C)CC(Nc2nc(Nc3cccc(-c4cnco4)c3)ncc2F)CC1(C)C [Compound I-100] | 34.4 nM | 494 nM |
| CN1C(C)(C)CC(Nc2nc(Nc3cccc(-c4cc5ccccc5s4)c3)ncc2F)CC1(C)C [Compound I-106] | 239 nM | 527 nM |
| CN1C(C)(C)CC(Nc2nc(Nc3ccc(Br)c(C(F)(F)F)c3)ncc2F)CC1(C)C [Compound I-109] | 107 nM | 345 nM |
| CN1C(C)(C)CC(Nc2nc(Nc3ccc(-c4ccncc4)c(F)c3)ncc2F)CC1(C)C [Compound I-115] | 21.9 nM | 287 nM |
| Cc1cc(Nc2ncc(F)c(NC3CC(C)(C)N(C)C(C)(C)C3)n2)ccc1-c1ccncc1 [Compound I-120] | 29.5 nM | 366 nM |
| CN1C(C)(C)CC(Nc2nc(Nc3ccc(-c4ccncc4)cc3)ncc2F)CC1(C)C [Compound I-123] | 80.8 nM | 872 nM |
| CN1C(C)(C)CC(Nc2nc(Nc3ccc(-c4cccnc4)cc3)ncc2F)CC1(C)C [Compound I-124] | 55.7 nM | 540 nM |
| CN1C(C)(C)CC(Nc2nc(Nc3ccc(-c4ccoc4)cc3)ncc2F)CC1(C)C [Compound I-125] | 111 nM | 892 nM |
| CN1C(C)(C)CC(Nc2nc(Nc3ccc(-c4cnn(C)c4)c(C(F)(F)F)c3)ncc2F)CC1(C)C [Compound I-126] | 12 nM | 243 nM |
| CN1C(C)(C)CC(Nc2nc(Nc3cc(C(F)(F)F)cc(C(F)(F)F)c3)ncc2F)CC1(C)C [Compound I-146] | 123 nM | 252 nM |
| CN1C(C)(C)CC(Nc2nc(Nc3ccc(Br)c(Cl)c3)ncc2F)CC1(C)C [Compound I-153] | 10.2 nM | 209 nM |
| CN1C(C)(C)CC(Nc2nc(Nc3ccc(-c4cccnc4)c(Cl)c3)ncc2F)CC1(C)C [Compound I-154] | 3.81 nM | 261 nM |
| CN1C(C)(C)CC(Nc2nc(Nc3ccc(-c4ccoc4)c(Cl)c3)ncc2F)CC1(C)C [Compound I-155] | 14.4 nM | 418 nM |
| CN1C(C)(C)CC(Nc2nc(Nc3ccc(-c4cnn(C)c4)c(Cl)c3)ncc2F)CC1(C)C [Compound I-157] | 3.1 nM | 242 nM |
| CN1C(C)(C)CC(Nc2nc(Nc3ccc(F)c(Br)c3)ncc2F)CC1(C)C [Compound I-158] | 20.6 nM | 489 nM |
| COc1ccc(Nc2ncc(F)c(NC3CC(C)(C)N(C)C(C)(C)C3)n2)cc1Br [Compound I-159] | 7.29 nM | 296 nM |
| Cc1ccc(Nc2ncc(F)c(NC3CC(C)(C)N(C)C(C)(C)C3)n2)cc1Br [Compound I-160] | 32.6 nM | 202 nM |
| CN1C(C)(C)CC(Nc2nc(Nc3cc(Br)cc(C(F)(F)F)c3)ncc2F)CC1(C)C [Compound I-162] | 68.6 nM | 553 nM |
